In patent publication US9493537B2, “Compounds with reduced ring size for use in diagnosing and treating melanoma, including metastatic melanoma and methods related to same” (STC.UNM, priority 2009, dated 2016):
Where two headings read alike, the source gives them in different places.

What was measured:
B16/F1 melanoma = test: Biodistribution in B16/F1 melanoma-bearing C57 mice; type: in vivo
Method: (§1) All the animal studies were conducted in compliance with Institutional Animal Care and Use Committee approval. The mice were housed five animals per cage in sterile micro-isolator cages in a temperature- and humidity-controlled room with a 12-h light/12-h dark schedule. […] C57 mice were subcutaneously inoculated on the right flank with 1×10^6 B16/F1 cells. The weight of tumors reached approximately 0.2 g 10 days post cell inoculation. […] Groups of 5 mice were sacrificed at 0.5, 2, 4 and 24 h post-injection, and tumors and organs of interest were harvested, weighed and counted. Blood values were taken as 6.5% of the whole-body weight. […] The mice were sacrificed at 2 h post-injection. The tumor and organs of interest were harvested, weighed and counted.
(§2) All animal studies were conducted in compliance with Institutional Animal Care and Use Committee approval. The pharmacokinetics of ^111In-DOTA-GGNle-CycMSHhex and ^111In-DOTA-GENle-CycMSHhex were determined in B16/F1 melanoma-bearing C57 female mice (Harlan, Indianapolis, Ind.). The C57 mice were subcutaneously inoculated with 1×10^6 B16/F1 cells on the right flank for each mouse to generate B16/F1 melanomas. Ten days post inoculation, the tumor weights reached approximately 0.2 g. Each melanoma-bearing mouse was injected with 0.037 MBq of ^111In-DOTA-GGNle-CycMSHhex or ^111In-DOTA-GENle-CycMSHhex via the tail vein. Groups of 5 mice were sacrificed at 0.5, 2, 4 and 24 h post-injection, and tumors and organs of interest were harvested, weighed and counted. Blood values were taken as 6.5% of the whole-body weight. The specificities of the tumor uptake of ^111In-DOTA-GGNle-CycMSHhex and ^111In-DOTA-GENle-CycMSHhex were determined by co-injecting 10 μg (6.07 nmol) of unlabeled NDP-MSH which is a linear α-MSH peptide analogue with picomolar MC1 receptor binding affinity.

[1] = as above; type: in vivo; settings: female, C57, mouse, iv, total radioactivity; for tissue uptake at 2 h / tissue uptake dose at 2 h: 2 h post-injection
Method: as §1, §2

tumor uptake with NDP-MSH co-injection as percent of tumor uptake without (B16/F1 melanoma; 10 μg NDP-MSH, 2 h after dose administration): 4.2% | Kidneys uptake (B16/F1 melanoma; 0.5 h post-injection): 16.20±4.32 % ID/g | Tumor uptake (B16/F1 melanoma; 0.5 h post-injection): 24.94±4.58 % ID/g | Tumor uptake (B16/F1 melanoma; 2 h post-injection): 19.39±2.72 % ID/g | reduction of kidney uptake by L-lysine co-injection (B16/F1 melanoma; 2 h post-injection): 30% | renal uptake as percent of that of ^111In-DOTA-GlyGlu-CycMSH (B16/F1 melanoma; 2 h post-injection): 72.8% | tumor uptake, times that of ^111In-DOTA-GlyGlu-CycMSH (B16/F1 melanoma; 2 h post-injection): 1.86 times | Tumor uptake (B16/F1 melanoma; 4 h post-injection): 17.01±2.54 % ID/g | liver uptake as percent of that of ^99mTc(CO)3-pz-βAla-Nle-cyclo[Asp-His-D-Phe-Arg-Trp-Lys]-NH2 (B16/F1 melanoma; 4 h post-injection): 7.5% | renal uptake as percent of that of ^99mTc(CO)3-pz-βAla-Nle-cyclo[Asp-His-D-Phe-Arg-Trp-Lys]-NH2 (B16/F1 melanoma; 4 h post-injection): 31.1% | renal uptake as percent of that of ^111In-DOTA-GlyGlu-CycMSH (B16/F1 melanoma; 4 h post-injection): 82.4% | tumor uptake, times that of ^99mTc(CO)3-pz-βAla-Nle-cyclo[Asp-His-D-Phe-Arg-Trp-Lys]-NH2 (B16/F1 melanoma; 4 h post-injection): 1.5 times | Kidneys uptake (B16/F1 melanoma; 24 h post-injection): 9.31±0.91 % ID/g | Tumor uptake (B16/F1 melanoma; 24 h post-injection): 10.53±1.11 % ID/g | tumor activity at 2 h remaining in tumors at 24 h (B16/F1 melanoma; 24 h post-injection): 54.3% | tissue uptake at 0.5 h ([1]; blood, 0.037 MBq, 0.5 h post-injection, read-out: Blood uptake): 3.33 ± 0.35 %ID/g | tissue uptake at 2 h ([1]; blood, 0.037 MBq, read-out: Blood uptake): 0.11 ± 0.07 %ID/g | tissue uptake at 4 h ([1]; blood, 0.037 MBq, 4 h post-injection, read-out: Blood uptake): 0.05 ± 0.02 %ID/g | tissue uptake at 24 h ([1]; blood, 0.037 MBq, 24 h post-injection, read-out: Blood uptake): 0.02 ± 0.01 %ID/g | tissue uptake at 2 h ([1]; blood, L-lysine co-injection, read-out: Blood uptake): 0.92 ± 0.48 %ID/g | tissue uptake at 2 h ([1]; blood, NDP blockade, read-out: Blood uptake): 0.07 ± 0.05 %ID/g | tissue uptake at 0.5 h ([1]; bone, 0.037 MBq, 0.5 h post-injection, read-out: Bone uptake): 1.34 ± 0.4 %ID/g | tissue uptake at 2 h ([1]; bone, 0.037 MBq, read-out: Bone uptake): 0.18 ± 0.1 %ID/g | tissue uptake at 4 h ([1]; bone, 0.037 MBq, 4 h post-injection, read-out: Bone uptake): 0.22 ± 0.15 %ID/g | tissue uptake at 24 h ([1]; bone, 0.037 MBq, 24 h post-injection, read-out: Bone uptake): 0.16 ± 0.03 %ID/g | tissue uptake at 2 h ([1]; bone, L-lysine co-injection, read-out: Bone uptake): 0.55 ± 0.14 %ID/g | tissue uptake at 2 h ([1]; bone, NDP blockade, read-out: Bone uptake): 0.05 ± 0.04 %ID/g | tissue uptake at 0.5 h ([1]; brain, 0.037 MBq, 0.5 h post-injection, read-out: Brain uptake): 0.21 ± 0.07 %ID/g | tissue uptake at 2 h ([1]; brain, 0.037 MBq, read-out: Brain uptake): 0.02 ± 0.01 %ID/g | tissue uptake at 4 h ([1]; brain, 0.037 MBq, 4 h post-injection, read-out: Brain uptake): 0.06 ± 0.03 %ID/g | tissue uptake at 24 h ([1]; brain, 0.037 MBq, 24 h post-injection, read-out: Brain uptake): 0.03 ± 0.01 %ID/g | tissue uptake at 2 h ([1]; brain, L-lysine co-injection, read-out: Brain uptake): 0.04 ± 0.01 %ID/g | tissue uptake at 2 h ([1]; brain, NDP blockade, read-out: Brain uptake): 0.01 ± 0.01 %ID/g | tissue uptake at 0.5 h ([1]; heart, 0.037 MBq, 0.5 h post-injection, read-out: Heart uptake): 1.24 ± 0.15 %ID/g | tissue uptake at 2 h ([1]; heart, 0.037 MBq, read-out: Heart uptake): 0.16 ± 0.1 %ID/g | tissue uptake at 4 h ([1]; heart, 0.037 MBq, 4 h post-injection, read-out: Heart uptake): 0.12 ± 0.03 %ID/g | tissue uptake at 24 h ([1]; heart, 0.037 MBq, 24 h post-injection, read-out: Heart uptake): 0.07 ± 0.05 %ID/g | tissue uptake at 2 h ([1]; heart, L-lysine co-injection, read-out: Heart uptake): 0.37 ± 0.02 %ID/g | tissue uptake at 2 h ([1]; heart, NDP blockade, read-out: Heart uptake): 0.06 ± 0.02 %ID/g | tissue uptake dose at 0.5 h ([1]; intestines, 0.037 MBq, 0.5 h post-injection, read-out: Intestines, percent injected dose): 2.16 ± 0.28 %ID | tissue uptake dose at 2 h ([1]; intestines, 0.037 MBq, read-out: Intestines, percent injected dose): 1.4 ± 0.56 %ID | tissue uptake dose at 4 h ([1]; intestines, 0.037 MBq, 4 h post-injection, read-out: Intestines, percent injected dose): 3.03 ± 1.06 %ID | tissue uptake dose at 24 h ([1]; intestines, 0.037 MBq, 24 h post-injection, read-out: Intestines, percent injected dose): 1.41 ± 0.86 %ID | tissue uptake dose at 2 h ([1]; intestines, L-lysine co-injection, read-out: Intestines, percent injected dose): 1.85 ± 0.73 %ID | tissue uptake dose at 2 h ([1]; intestines, NDP blockade, read-out: Intestines, percent injected dose): 1.14 ± 0.47 %ID | tissue uptake at 0.5 h ([1]; kidneys, 0.037 MBq, 0.5 h post-injection, read-out: Kidneys uptake): 16.2 ± 4.32 %ID/g | tissue uptake at 2 h ([1]; kidneys, 0.037 MBq, read-out: Kidneys uptake): 9.52 ± 0.44 %ID/g | tissue uptake at 4 h ([1]; kidneys, 0.037 MBq, 4 h post-injection, read-out: Kidneys uptake): 9.99 ± 1.39 %ID/g | tissue uptake at 24 h ([1]; kidneys, 0.037 MBq, 24 h post-injection, read-out: Kidneys uptake): 9.31 ± 0.91 %ID/g | tissue uptake at 2 h ([1]; kidneys, L-lysine co-injection, read-out: Kidneys uptake): 6.66 ± 0.62 %ID/g
Structure (SMILES): CCCC[C@H](NC(=O)CN1CCN(CC(=O)O)CCN(CC(=O)O)CCN(CC(=O)O)CC1)C(=O)N[C@H]1CC(=O)NCCCC[C@@H](C(N)=O)NC(=O)[C@H](Cc2c[nH]c3ccccc23)NC(=O)[C@H](CCCNC(=N)N)NC(=O)[C@@H](Cc2ccccc2)NC(=O)[C@H](Cc2c[nH]cn2)NC1=O [^111In-DOTA-Nle-CycMSHhex, metal not drawn]
